These results are taken from US20090270371A1, “QUINOLINE DERIVATIVES USEFUL IN THE TREATMENT OF MGLUR5 RECEPTOR-MEDIATED DISORDERS” (priority 2005, published 2009).

The structures appear in SMILES notation.

In this assay the target is T1, rat mGluR5 receptors (Rattus norvegicus, UniProt P31424).
T1 construct: rat cerebro-cortical membrane preparation was used; from tissue; host or cells: rat cerebral cortex membranes
T1 sequence (P31424 21-1203): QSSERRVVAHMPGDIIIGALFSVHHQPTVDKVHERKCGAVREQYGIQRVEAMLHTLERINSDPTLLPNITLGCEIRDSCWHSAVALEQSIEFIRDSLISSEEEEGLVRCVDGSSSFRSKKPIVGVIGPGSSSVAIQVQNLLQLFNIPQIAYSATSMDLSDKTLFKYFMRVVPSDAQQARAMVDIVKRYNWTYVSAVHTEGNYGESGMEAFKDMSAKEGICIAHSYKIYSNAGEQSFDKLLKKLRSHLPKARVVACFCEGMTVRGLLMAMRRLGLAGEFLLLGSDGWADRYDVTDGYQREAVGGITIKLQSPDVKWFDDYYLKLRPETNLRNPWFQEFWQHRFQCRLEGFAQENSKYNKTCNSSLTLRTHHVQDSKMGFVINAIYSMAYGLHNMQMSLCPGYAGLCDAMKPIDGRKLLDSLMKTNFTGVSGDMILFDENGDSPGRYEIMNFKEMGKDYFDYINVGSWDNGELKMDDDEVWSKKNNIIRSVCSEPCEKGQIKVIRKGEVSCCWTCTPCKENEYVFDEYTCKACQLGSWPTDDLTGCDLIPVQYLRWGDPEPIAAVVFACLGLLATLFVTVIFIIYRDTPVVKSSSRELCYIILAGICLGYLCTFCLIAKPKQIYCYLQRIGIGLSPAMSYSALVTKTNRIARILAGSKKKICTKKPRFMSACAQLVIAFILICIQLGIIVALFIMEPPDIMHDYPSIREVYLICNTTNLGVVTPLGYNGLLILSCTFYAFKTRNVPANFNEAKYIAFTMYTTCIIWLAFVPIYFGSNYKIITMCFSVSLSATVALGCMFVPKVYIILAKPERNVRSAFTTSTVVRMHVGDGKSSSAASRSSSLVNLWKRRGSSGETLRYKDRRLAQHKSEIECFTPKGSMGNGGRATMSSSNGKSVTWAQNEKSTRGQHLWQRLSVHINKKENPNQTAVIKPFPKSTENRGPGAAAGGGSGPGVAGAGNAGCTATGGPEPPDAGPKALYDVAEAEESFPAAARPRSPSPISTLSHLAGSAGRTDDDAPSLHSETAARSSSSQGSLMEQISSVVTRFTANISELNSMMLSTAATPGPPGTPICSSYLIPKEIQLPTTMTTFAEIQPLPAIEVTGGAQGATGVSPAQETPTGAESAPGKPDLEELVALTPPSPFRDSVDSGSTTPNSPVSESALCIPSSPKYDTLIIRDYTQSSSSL
As to the kind of experiment: mGluR5 receptor binding test, rat cerebro-cortical membrane preparation, [3H]-M-MPEP. As to conditions: affinity for rat mGluR5 receptors; [3H]-M-MPEP (2 nM) radioligand. An outline of the steps: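 Radioligand binding used rat cerebro-cortical membranes with 2 nM [3H]-M-MPEP. Nonspecific binding was defined with 10 μM M-MPEP. The method follows a modification of a published procedure.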
In general, Ki refers to a dissociation constant, usually derived from enzyme kinetics or from competition with a known ligand. High values mean lower affinity, low ones higher affinity. `O=S(=O)(c1ccccc1)c1cnc2cc(F)ccc2c1N1CCOCC1` [Compound 304] gave an inhibition constant (Ki) above 500 nM. As for `O=S(=O)(c1ccc(Cl)cc1)c1cnc2cc(F)ccc2c1N1CCOCC1` [Compound 305], the figure is above 500 nM. Next, `COc1cccc(S(=O)(=O)c2cnc3cc(F)ccc3c2N2CCOCC2)c1` [Compound 306]: 200 to 500 nM; `COc1ccc(S(=O)(=O)c2cnc3cc(F)ccc3c2N2CCOCC2)cc1Cl` [Compound 307]: 200 to 500 nM; `O=S(=O)(c1cc(Cl)cc(Cl)c1)c1cnc2cc(F)ccc2c1N1CCOCC1` [Compound 308]: 200 to 500 nM. Next, `Cc1ccc(S(=O)(=O)c2cnc3cc(F)ccc3c2N2CCOCC2)cc1F` [Compound 309]: 200 to 500 nM; `O=S(=O)(c1cc(F)cc(F)c1)c1cnc2cc(F)ccc2c1N1CCOCC1` [Compound 310]: above 500 nM. `N#Cc1cccc(S(=O)(=O)c2cnc3cc(F)ccc3c2N2CCOCC2)c1` [Compound 311] registered a Ki of 200 to 500 nM.

As to `Cc1ccc(S(=O)(=O)c2cnc3cc(F)ccc3c2N2CCOCC2)cc1Cl` [Compound 312], the Ki was below 200 nM. As for `COc1ccc(S(=O)(=O)c2cnc3cc(F)ccc3c2N2CCOCC2)cc1` [Compound 313], the figure is above 500 nM. As for `Cc1ccc(S(=O)(=O)c2cnc3cc(F)ccc3c2N2CCOCC2)cc1C` [Compound 314], the figure is 200 to 500 nM. `O=S(=O)(c1ccc(F)c(F)c1)c1cnc2cc(F)ccc2c1N1CCOCC1` [Compound 315] yielded a Ki of 200 to 500 nM. Consider `O=S(=O)(c1ccc(Cl)c(Cl)c1)c1cnc2cc(F)ccc2c1N1CCOCC1` [Compound 316], for which the Ki was below 200 nM. As for `Cc1cc(C)cc(S(=O)(=O)c2cnc3cc(F)ccc3c2N2CCOCC2)c1` [Compound 317], the figure is 200 to 500 nM; as for `O=S(=O)(c1cc(Cl)cc(Cl)c1)c1cnc2cc(Cl)ccc2c1N1CCOCC1` [Compound 318], below 200 nM. The compound `O=S(=O)(c1cc(F)cc(F)c1)c1cnc2cc(Cl)ccc2c1N1CCOCC1` [Compound 319] displayed an inhibition constant (Ki) of 200 to 500 nM. As for `N#Cc1cccc(S(=O)(=O)c2cnc3cc(Cl)ccc3c2N2CCOCC2)c1` [Compound 320], the figure is 200 to 500 nM; as for `O=S(=O)(c1ccc(F)cc1)c1cnc2cc(Cl)ccc2c1N1CCOCC1` [Compound 321], above 500 nM; as for `COc1ccc(S(=O)(=O)c2cnc3cc(Cl)ccc3c2N2CCOCC2)cc1` [Compound 322], above 500 nM. Next, `O=S(=O)(c1ccccc1)c1cnc2cc(Cl)ccc2c1N1CCOCC1` [Compound 323]: above 500 nM; `O=S(=O)(c1ccc(Cl)cc1)c1cnc2cc(Cl)ccc2c1N1CCOCC1` [Compound 324]: 200 to 500 nM; `O=S(=O)(c1cccc(F)c1)c1cnc2cc(Cl)ccc2c1N1CCOCC1` [Compound 325]: above 500 nM. Next, `COc1cccc(S(=O)(=O)c2cnc3cc(Cl)ccc3c2N2CCOCC2)c1` [Compound 326]: 200 to 500 nM. `Cc1ccc(S(=O)(=O)c2cnc3cc(Cl)ccc3c2N2CCOCC2)cc1C` [Compound 327]: the Ki was below 200 nM. Next, `O=S(=O)(c1cccc(Cl)c1)c1cnc2cc(Cl)ccc2c1N1CCOCC1` [Compound 328]: below 200 nM.

For `Cc1ccc(S(=O)(=O)c2cnc3cc(Cl)ccc3c2N2CCOCC2)cc1Cl` [Compound 329], the Ki was below 200 nM. As for `COc1ccc(S(=O)(=O)c2cnc3cc(Cl)ccc3c2N2CCOCC2)cc1Cl` [Compound 330], the figure is 200 to 500 nM. As for `O=S(=O)(c1ccc(F)c(F)c1)c1cnc2cc(Cl)ccc2c1N1CCOCC1` [Compound 331], the figure is above 500 nM; as for `O=S(=O)(c1ccc(Cl)c(Cl)c1)c1cnc2cc(Cl)ccc2c1N1CCOCC1` [Compound 332], below 200 nM; as for `Cc1cc(C)cc(S(=O)(=O)c2cnc3cc(Cl)ccc3c2N2CCOCC2)c1` [Compound 333], above 500 nM.

As for `O=S(=O)(c1ccc(F)c(Cl)c1)c1cnc2cc(Cl)ccc2c1N1CCOCC1` [Compound 334], the Ki was below 200 nM. As for `O=S(=O)(c1cc(Cl)cc(Cl)c1)c1cnc2c(F)cccc2c1N1CCOCC1` [Compound 335], the figure is 200 to 500 nM; as for `O=S(=O)(c1cc(F)cc(F)c1)c1cnc2c(F)cccc2c1N1CCOCC1` [Compound 336], 200 to 500 nM; as for `O=S(=O)(c1ccc(F)cc1)c1cnc2c(F)cccc2c1N1CCOCC1` [Compound 337], above 500 nM. Next, `COc1ccc(S(=O)(=O)c2cnc3c(F)cccc3c2N2CCOCC2)cc1` [Compound 338]: above 500 nM. Next, `O=S(=O)(c1ccc(Cl)cc1)c1cnc2c(F)cccc2c1N1CCOCC1` [Compound 339]: 200 to 500 nM; `O=S(=O)(c1cccc(F)c1)c1cnc2c(F)cccc2c1N1CCOCC1` [Compound 340]: above 500 nM; `Cc1ccc(S(=O)(=O)c2cnc3c(F)cccc3c2N2CCOCC2)cc1F` [Compound 341]: 200 to 500 nM. For the compound `Cc1ccc(S(=O)(=O)c2cnc3c(F)cccc3c2N2CCOCC2)cc1` [Compound 342], the Ki is above 500 nM. `O=S(=O)(c1ccc(F)c(F)c1)c1cnc2c(F)cccc2c1N1CCOCC1` [Compound 343] yielded a Ki of 200 to 500 nM. As for `O=S(=O)(c1ccc(F)c(Cl)c1)c1cnc2c(F)cccc2c1N1CCOCC1` [Compound 344], the figure is below 200 nM; as for `O=S(=O)(c1ccc(Cl)c(Cl)c1)c1cnc2c(F)cccc2c1N1CCOCC1` [Compound 345], below 200 nM; as for `N#Cc1ccc2ncc(S(=O)(=O)c3ccc(F)cc3)c(N3CCOCC3)c2c1` [Compound 346], 200 to 500 nM. Next, `O=S(=O)(c1ccc(Cl)cc1)c1cnc2c(Cl)ccc(Cl)c2c1N1CCOCC1` [Compound 347]: 200 to 500 nM. Next, `O=S(=O)(c1ccc(Cl)cc1)c1cnc2ccc(F)cc2c1N1CCC(F)(F)CC1` [Compound 348]: 200 to 500 nM; `CC1CCN(c2c(S(=O)(=O)c3ccc(F)c(Cl)c3)cnc3ccc(F)cc23)CC1` [Compound 349]: 200 to 500 nM; `O=S(=O)(c1ccc(F)cc1)c1cnc2cc(Cl)ccc2c1N1CCC(CO)CC1` [Compound 350]: 200 to 500 nM.

In turn, `O=S(=O)(c1cc(F)cc(F)c1)c1cnc2cc(Cl)ccc2c1N1CCC(CO)CC1` [Compound 351] yielded an inhibition constant (Ki) of 200 to 500 nM.
